Source: patent publication US9334256B2, “Agents and methods for treating ischemic and other diseases” (NoNO INC., priority 2011, dated 2016)
“Also recorded” adds a separate entry of the source.

Legend:
[1] = system: rats subjected to lateral FPI; experiment: Distance traveled and activity post FPI; format: in vivo, rat; settings: FIG. 4B
Source text: Thus, M21 and TRPM7 inhibitors are effective treatments to reduce the damaging effects of neurotrauma, including concussions.

[2] = system: neurons, hepatocytes, cardiomyocytes, retina; experiment: Survival after anoxia in cells and tissues; format: cell-based; settings: summary statement
[3] = system: rat brains subjected to concussive brain trauma; experiment: Fluid percussion injury (FPI) model, TTC staining of brain sections; format: in vivo; settings: applied prior to the injury or 1 hour after; 2-6 atm injury; FIG. 1
Procedure: Inhibitors of TRPM7 were tested for their ability to provide neuroprotection to rat brains subjected to concussive brain trauma using a rodent model of fluid percussion injury (FPI). FPI was performed as described in the literature using 350-370 g male Sprague Dawley rats (Charles River, St. Constant, Quebec, Canada). In brief, 24 h before injury, the animal was anesthetized using 2% halothane and 2:1 nitrous oxide:oxygen. A 4.8 mm craniotomy was made with its center between the bregma and lambda and between the sagittal suture and right temporal ridge. A modified Leur-loc fitting was attached over the craniotomy and cemented in place using Acron MC/R dental acrylic (GC America, Alsip, Ill.). The Leur-loc was filled with saline, and a small piece of gelfoam was inserted. The incision was sutured, and the animal was returned to its cage overnight if not used same day. The following day, the incision was reopened, cleaned, and the gelfoam was removed. […] Injury severity was recorded using an oscilloscope attached to a transducer, and by sectioning the brains and staining with 2,3,5-Triphenyltetrazolium chloride staining (TTC). […]
Likewise, TRPM7 inhibitors are also expected to provide neuroprotection to other types of brain injuries. […] TRPM7 inhibitors such as M21 were applied 1 hour after stretch injury and cells were assessed for survival by PI fluorescence 24 hours after the injury. […]

TRPM7 ion channel = target: T1, TRPM7 ion channel (Mus musculus, UniProt Q923J1); experiment: Whole-cell patch clamp of TRPM7 currents in HEK293 cells; format: cell-based; settings: value shown = concentration at which the compound significantly inhibits the ion channel
T1 construct: expressed in transfected cells; host or cells: TRPM7-tet-on HEK293 cells
Procedure: To further understand the structure function relationships between the TRPM7 inhibitors identified in the TRPM7-dependent HEK death assay, the activity of a subset of these inhibitors described herein were tested for their ability to inhibit TRPM7 currents in cell systems. Whole-cell patch clamp recordings were used essentially as described to test the TRPM7 inhibitors in HEK293 cells, H9c2 cardiomyocytes and cultured neurons. […] Those that provide >10% inhibition of TRPM7 channel activity in the HEK293 cell system were labeled with the concentration tested (generally 5 uM). Thus, the compounds in this table marked with such a value are able to block the activity gof the TRPM7 ion channel. FIGS. 2A-C provide an example of this for the TRPM7 inhibitor 399 (Structure 9). […] Numbers in brackets indicate the number of independent tests, and the bars represent the SEM.
Whole-cell currents were recorded using an Axopatch 1D or MultiClamp 700B amplifier and were digitized at 10 kHz and low-pass filtered at 2 kHz, at room temperature. pClamp10 software was used for data acquisition and analysis. Patch electrodes were pulled from Borosilicate glass and fire polished to a resistance of 2-4 MΩ. All drugs were administrated directly to cell bodies under recording through the fast exchange perfusion system.
The intracellular solution (ICS) contains (mM) 145 Cs-methanesulfonate, 8 NaCl, l MgCl2, 4.1 CaCl2, 10 EGTA, and 10 HEPES, 5 ATP, pH at 7.4, with 300-305 mOsm. The extracellular solution (ECS) contains (mM) 140 NaCl, 5 KCl, 2 CaCl2, 20 HEPES, and 10 glucose, pH at 7.4 and with 315-320 mOsm.
Voltage stimuli lasting 250 ms were delivered at 5-s intervals with voltage ramps ranging from −100 to +100 mV. The current values at −80 mV and +80 mV on I-V curve represent the measures of inward and outward current respectively.
Table X and FIGS. 7-51 show screening data for several additional compounds that are variants of M5, M6 or M21. The synthesis of compounds of Table X and FIGS. 7-51 is shown in Appendices A-C. The compounds shown in FIGS. 7-51 can be related to the appropriate row of Table X by the compound number shown in the figures and in the first column of Table X. The compounds in Table X other than M5, M6 and M21 themselves, are believed to be novel. The Table provides a number identifying the compound, its structurer, molecular weight and its cluster (i.e., whether the compound resembles M5, M6 or M21). The three columns relations to PI uptake describe the results of screening the compounds in the type of assay from Example 1. […] The last two columns show an effect on proliferation of Weri retinoblastoma or HeLa cervical cancer cells. Inhibition of proliferation is a measure of anti-neoplastic activity. […] If no data is shown, no test was performed.

T1 sequence (Q923J1 whole entry): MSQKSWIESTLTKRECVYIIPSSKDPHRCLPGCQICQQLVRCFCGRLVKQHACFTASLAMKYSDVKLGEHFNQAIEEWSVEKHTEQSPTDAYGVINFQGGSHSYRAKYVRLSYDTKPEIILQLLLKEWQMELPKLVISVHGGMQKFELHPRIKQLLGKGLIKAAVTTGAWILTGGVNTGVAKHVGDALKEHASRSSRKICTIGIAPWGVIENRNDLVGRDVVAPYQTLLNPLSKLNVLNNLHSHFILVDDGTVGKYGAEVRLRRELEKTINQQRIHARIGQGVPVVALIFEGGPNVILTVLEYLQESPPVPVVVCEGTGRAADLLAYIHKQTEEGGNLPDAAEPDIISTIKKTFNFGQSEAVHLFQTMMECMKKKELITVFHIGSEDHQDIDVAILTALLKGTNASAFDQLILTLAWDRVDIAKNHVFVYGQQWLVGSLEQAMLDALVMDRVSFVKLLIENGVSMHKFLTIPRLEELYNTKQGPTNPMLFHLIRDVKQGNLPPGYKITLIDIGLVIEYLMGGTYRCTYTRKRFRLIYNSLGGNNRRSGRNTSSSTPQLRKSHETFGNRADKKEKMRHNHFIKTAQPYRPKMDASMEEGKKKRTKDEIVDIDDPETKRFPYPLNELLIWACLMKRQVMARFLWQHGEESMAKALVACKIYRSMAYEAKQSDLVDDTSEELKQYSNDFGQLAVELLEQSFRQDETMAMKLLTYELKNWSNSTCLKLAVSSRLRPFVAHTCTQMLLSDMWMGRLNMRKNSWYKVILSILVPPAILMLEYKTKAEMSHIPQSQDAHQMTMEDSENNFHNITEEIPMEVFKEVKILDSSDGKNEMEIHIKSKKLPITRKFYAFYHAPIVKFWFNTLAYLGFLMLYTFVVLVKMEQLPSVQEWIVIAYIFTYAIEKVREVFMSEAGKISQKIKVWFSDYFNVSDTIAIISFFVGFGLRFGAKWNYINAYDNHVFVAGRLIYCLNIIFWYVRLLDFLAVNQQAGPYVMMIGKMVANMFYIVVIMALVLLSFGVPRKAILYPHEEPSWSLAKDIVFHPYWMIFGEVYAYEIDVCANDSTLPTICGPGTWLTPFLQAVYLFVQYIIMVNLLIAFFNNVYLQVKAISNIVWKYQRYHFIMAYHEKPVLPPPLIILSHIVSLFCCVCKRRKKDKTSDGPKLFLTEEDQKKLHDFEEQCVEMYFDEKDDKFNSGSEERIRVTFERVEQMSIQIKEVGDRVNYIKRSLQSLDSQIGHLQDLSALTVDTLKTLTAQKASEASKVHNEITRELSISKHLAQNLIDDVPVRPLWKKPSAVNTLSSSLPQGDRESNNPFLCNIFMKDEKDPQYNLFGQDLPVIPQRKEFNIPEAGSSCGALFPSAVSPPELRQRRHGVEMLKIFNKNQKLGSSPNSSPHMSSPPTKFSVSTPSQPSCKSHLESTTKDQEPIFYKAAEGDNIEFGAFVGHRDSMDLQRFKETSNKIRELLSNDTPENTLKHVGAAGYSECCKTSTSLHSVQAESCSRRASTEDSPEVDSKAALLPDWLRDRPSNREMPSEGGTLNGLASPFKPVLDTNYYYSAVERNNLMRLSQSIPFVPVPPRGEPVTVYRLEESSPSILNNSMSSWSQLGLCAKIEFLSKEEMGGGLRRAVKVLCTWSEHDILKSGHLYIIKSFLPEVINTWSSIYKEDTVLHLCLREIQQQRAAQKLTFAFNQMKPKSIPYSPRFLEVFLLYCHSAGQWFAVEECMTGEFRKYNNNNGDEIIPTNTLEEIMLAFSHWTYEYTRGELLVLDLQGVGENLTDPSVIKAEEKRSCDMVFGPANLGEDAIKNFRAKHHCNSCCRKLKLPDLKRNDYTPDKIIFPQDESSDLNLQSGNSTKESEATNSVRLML

For Cc1c(Cc2ccc(Cl)c(Cl)c2)c(=O)oc2cc(O)ccc12 [Compound M21], the “distance traveled and activity post FPI” value [1] was “comparable to uninjured animals”, the survival after anoxia [2] was “broadly effective in increasing survival after anoxia in various tissues” and the “protection of rat brains from fluid percussion-induced neuronal damage” value [3] was “able to protect the brain from injuries sustained from concussive trauma; also recorded: significant protection”. The TRPM7 current (TRPM7 ion channel) was 5 μM (Those that provide >10% inhibition of TRPM7 channel activity in the HEK293 cell system were labeled with the concentration tested (generally 5 uM)).
